ChEMBL document CHEMBL4330132, “5-Keto-3-cyano-2,4-diaminothiophenes as selective maternal embryonic leucine zipper kinase inhibitors” (Bioorg Med Chem Lett, 2019)

Legend:
[1] = biological target: Cyclin-dependent kinase 11B (Homo sapiens) (UniProt P21127); assay: Binding affinity to wild-type human partial length CDC2L1 (P353 to G692 residues) expressed in bacterial expression system assessed as residual binding level at 1 uM by Kinomescan method relative to control
[2] = tested on: Hepatocyte growth factor receptor (Homo sapiens), P08581 [Y1235D]; assay: Binding affinity to human partial length MET Y1235D mutant (D1010 to S1367 residues) expressed in bacterial expression system assessed as residual binding level at 1 uM by Kinomescan method relative to control
[3] = biological target: SRSF protein kinase 2 (Homo sapiens) (UniProt P78362); assay: Binding affinity to wild-type human full length SRPK2 (M1 to S686 residues) expressed in bacterial expression system assessed as residual binding level at 1 uM by Kinomescan method relative to control
Sequence of SRSF protein kinase 2 (Homo sapiens) (P78362 whole entry, looked up, the tested form may be a part, canonical isoform): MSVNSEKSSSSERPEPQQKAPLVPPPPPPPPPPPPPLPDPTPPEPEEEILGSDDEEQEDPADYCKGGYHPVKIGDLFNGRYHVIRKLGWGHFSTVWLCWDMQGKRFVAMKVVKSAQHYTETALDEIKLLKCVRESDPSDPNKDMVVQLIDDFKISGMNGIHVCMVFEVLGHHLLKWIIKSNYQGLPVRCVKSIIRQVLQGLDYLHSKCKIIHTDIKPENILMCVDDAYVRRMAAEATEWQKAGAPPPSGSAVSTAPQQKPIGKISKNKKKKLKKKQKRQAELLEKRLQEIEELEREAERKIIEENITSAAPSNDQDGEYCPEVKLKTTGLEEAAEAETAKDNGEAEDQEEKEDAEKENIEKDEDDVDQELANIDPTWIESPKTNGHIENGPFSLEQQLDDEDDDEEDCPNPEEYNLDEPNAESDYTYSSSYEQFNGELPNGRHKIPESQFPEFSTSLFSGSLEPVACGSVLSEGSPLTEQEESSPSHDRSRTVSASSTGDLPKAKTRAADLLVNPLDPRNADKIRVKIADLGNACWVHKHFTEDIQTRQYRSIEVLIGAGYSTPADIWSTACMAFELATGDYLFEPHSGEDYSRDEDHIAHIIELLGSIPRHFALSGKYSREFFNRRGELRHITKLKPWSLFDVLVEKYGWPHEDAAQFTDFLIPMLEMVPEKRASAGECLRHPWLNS

[4] = biological target: Phosphorylase b kinase gamma catalytic chain, liver/testis isoform (Homo sapiens) (UniProt P15735); assay: Binding affinity to wild-type human partial length PHKG2 (M1 to W300 residues) expressed in bacterial expression system assessed as residual binding level at 1 uM by Kinomescan method relative to control
Sequence of Phosphorylase b kinase gamma catalytic chain, liver/testis isoform (Homo sapiens) (P15735 whole entry, the tested form may be a part, canonical isoform): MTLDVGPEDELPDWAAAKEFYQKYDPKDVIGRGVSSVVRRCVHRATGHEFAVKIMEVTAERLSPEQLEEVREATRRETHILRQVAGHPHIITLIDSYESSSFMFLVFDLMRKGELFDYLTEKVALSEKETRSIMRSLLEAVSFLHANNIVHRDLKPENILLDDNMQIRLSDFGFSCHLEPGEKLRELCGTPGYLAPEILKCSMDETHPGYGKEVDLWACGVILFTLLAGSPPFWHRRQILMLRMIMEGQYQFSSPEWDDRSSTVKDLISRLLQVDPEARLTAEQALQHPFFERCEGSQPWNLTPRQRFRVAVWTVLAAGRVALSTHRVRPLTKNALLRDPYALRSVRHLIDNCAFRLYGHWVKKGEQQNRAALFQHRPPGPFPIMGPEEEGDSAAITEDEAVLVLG

[5] = biological target: Tyrosine-protein kinase Fes/Fps (Homo sapiens) (UniProt P07332); assay: Binding affinity to wild-type human partial length FES (I527 to R822 residues) expressed in bacterial expression system assessed as residual binding level at 1 uM by Kinomescan method relative to control
Sequence of Tyrosine-protein kinase Fes/Fps (Homo sapiens) (P07332 whole entry, the tested form may be a part): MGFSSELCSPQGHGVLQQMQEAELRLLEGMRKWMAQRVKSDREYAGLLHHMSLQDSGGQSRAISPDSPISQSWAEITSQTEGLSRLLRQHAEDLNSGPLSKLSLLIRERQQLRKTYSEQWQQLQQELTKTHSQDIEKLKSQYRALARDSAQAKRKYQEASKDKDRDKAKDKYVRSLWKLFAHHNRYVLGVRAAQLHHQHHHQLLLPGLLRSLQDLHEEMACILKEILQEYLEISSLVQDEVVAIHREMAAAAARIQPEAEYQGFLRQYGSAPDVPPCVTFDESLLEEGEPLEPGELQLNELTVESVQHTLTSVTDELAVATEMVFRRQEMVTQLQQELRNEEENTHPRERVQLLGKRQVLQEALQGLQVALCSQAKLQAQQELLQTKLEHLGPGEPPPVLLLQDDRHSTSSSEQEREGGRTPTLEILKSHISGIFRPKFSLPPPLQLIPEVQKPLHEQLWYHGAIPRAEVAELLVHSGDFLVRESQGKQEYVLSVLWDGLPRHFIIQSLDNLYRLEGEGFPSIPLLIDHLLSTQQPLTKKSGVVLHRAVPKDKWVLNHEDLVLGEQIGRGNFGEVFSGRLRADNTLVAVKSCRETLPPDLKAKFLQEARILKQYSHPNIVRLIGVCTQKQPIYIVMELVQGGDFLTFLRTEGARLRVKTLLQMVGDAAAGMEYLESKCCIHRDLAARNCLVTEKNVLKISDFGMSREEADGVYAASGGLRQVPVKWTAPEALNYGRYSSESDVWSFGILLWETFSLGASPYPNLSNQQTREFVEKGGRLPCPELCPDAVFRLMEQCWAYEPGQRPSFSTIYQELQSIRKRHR

Sequence of Cyclin-dependent kinase 11B (Homo sapiens) (P21127 whole entry, the tested form may be a part): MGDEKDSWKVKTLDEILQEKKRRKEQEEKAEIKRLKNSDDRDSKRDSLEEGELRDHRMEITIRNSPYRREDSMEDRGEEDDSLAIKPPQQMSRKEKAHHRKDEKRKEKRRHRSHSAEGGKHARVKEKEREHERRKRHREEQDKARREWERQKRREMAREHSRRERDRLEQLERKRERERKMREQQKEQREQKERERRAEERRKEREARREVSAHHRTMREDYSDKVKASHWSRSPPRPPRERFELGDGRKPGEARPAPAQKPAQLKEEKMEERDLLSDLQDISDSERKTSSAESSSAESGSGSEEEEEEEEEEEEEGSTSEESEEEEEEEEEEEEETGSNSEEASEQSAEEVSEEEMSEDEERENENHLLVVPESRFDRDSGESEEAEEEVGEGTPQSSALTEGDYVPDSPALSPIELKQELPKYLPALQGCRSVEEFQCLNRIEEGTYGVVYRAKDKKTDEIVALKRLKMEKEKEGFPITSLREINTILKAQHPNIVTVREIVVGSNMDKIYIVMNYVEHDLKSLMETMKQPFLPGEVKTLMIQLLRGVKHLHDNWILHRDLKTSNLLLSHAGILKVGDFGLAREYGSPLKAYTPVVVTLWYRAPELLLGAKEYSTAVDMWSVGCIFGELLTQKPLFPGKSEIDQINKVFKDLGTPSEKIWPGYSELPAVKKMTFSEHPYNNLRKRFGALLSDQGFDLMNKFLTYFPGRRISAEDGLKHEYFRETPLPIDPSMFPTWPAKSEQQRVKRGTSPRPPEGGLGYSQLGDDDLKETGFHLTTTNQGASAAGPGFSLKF

With `CC(C)Nc1sc(C(=O)c2ccc(Cl)s2)c(N)c1C#N` the Activity [1] was 100%, the Activity [2] was 73% and the Activity [3] was 93%. The Activity [4] was 72% and the Activity [5] was 98%.
